Measurements: a melting point compilation (Tetko et al.; mined from patent text by program, amines drawn as free bases though some values may be those of a salt)

With O=c1[nH][nH]c(=O)n1Cc1ccccc1 the melting point was 185 to 188 °C.
Compound Cn1c(=O)c2cnccc2n(C)c1=O has a melting point of 174 to 175 °C.
Compound CCOP(=O)(CCN1CCCCNc2c1c(=O)c2=O)OCC has a melting point of 103 to 105 °C.
Work on C#CC1(O)CCC2C3CCC4=CC(=O)C=CC4(C)C3CCC21C (stereo not given) yielded a melting point of 218 to 219 °C.
CC(C)Oc1ccc(-c2nn(C(C)c3oc4ccccc4c(=O)c3-c3cccc(F)c3)c3ncnc(N)c23)cc1F (stereo not given) showed a melting point of 204 to 206 °C.
Cc1sc2c(c1C)C(c1ccc(Cl)cc1)=NC(CC(=O)N1CCCCC1)c1nnc(C)n1-2 (stereo not given) showed a melting point of 260 to 262 °C.
CCCS(=O)(=O)c1cc([C@H]2CC[C@H](c3cc(OC)c(OC)c(OC)c3)O2)cc(OC)c1OCc1ccccc1 (relative stereo) showed a melting point of 176 to 177 °C.
CCNC(=O)Nc1cccc(-c2cccc(OC)c2)c1 showed a melting point of 152 to 154 °C.
Compound O=c1c2ccc(Cl)cc2n(Cc2ccccc2)c(=O)n1S(=O)(=O)c1ccc(Cl)cc1 has a melting point of 242 to 244 °C.
With COC1OCC[C@@H]1NC(=O)[C@H](Cc1ccccc1)NC(=O)OCc1ccccc1 (stereo not given in full) the melting point was 140 to 142 °C.
NS(=O)(=O)c1nc2ccc(OC(=O)CC3CCCC3)cc2s1 showed a melting point of 118 to 120 °C.
CCOC(=O)C1=C(C)Nc2nc(N3CCOCC3)nc(N3CCOCC3)c2C1c1cccnc1 (stereo not given) showed a melting point of 229 °C.
Compound CN1C(=O)SC(=Cc2ccc([N+](=O)[O-])cc2)C1=O has a melting point of 233 to 234 °C.
Compound CCn1c(C(OCCO)(c2cccc(C(F)(F)F)c2)c2cccc(C(F)(F)F)c2)nc(-c2ccncc2)c1-c1ccc(Cl)cc1 has a melting point of 222 to 223 °C.
CCOC(=O)c1cc(-n2c(=O)cc(C)[nH]c2=O)ccc1Cl gave a melting point of 220 to 223 °C.
CC1(C)OC(C=Cc2cccs2)=CC1=O showed a melting point of 75 to 77 °C.
O=C(Nc1ccc2cc(CN3CCCC3)cnc2c1)c1ccc(-c2ccc(F)cc2)cc1 showed a melting point of 210 to 212 °C.
COc1ccc(OCCC#N)cc1 gave a melting point of 58 °C.
Compound CCO/N=C(\C)[C@H]1CC[C@H]2[C@@H]3CC=C4C[C@@H](O)CC[C@]4(C)[C@H]3CC[C@]12C has a melting point of 119 to 121 °C.
With CCOC(=O)C1N=C(c2ccccc2)c2ccccc2NC1=O (stereo not given) the melting point was 226 °C.
With ON=C1CC(c2ccccc2)c2ccccc21 (stereo not given) the melting point was 123 to 125 °C.
In the case of CC(O)C#Cc1cc(F)c2ncc(C(=O)NCc3ccc(Cl)cc3)c(O)c2c1 (stereo not given), the melting point is reported as 232 to 234 °C.
With CCc1c(Cl)c(Oc2ncc(C(F)(F)F)cc2Cl)nn1C(=O)NC the melting point was 88 to 89 °C.
With CC(O)c1cnc2c(-c3cc(-c4ccccc4)cs3)cnn2c1O (stereo not given) the melting point was 262 to 285 °C.
For COC1=C(C)C(=O)C(OC)=C(CCCCCC2=C(OC)C(=O)C(C)=C(OC)C2=O)C1=O, the melting point was 84 to 86 °C.
With C=CC1(CC(N)=O)CC(C)(C)CC(C)(C)C1 the melting point was 44 to 46 °C.
Work on O=C(O)c1cc(N2C(=O)C(c3ccccc3)=C(c3ccccc3)C2=O)ccc1O yielded a melting point of 249 to 250 °C.
For CC(=O)Nc1ccc(OCCCCBr)c([N+](=O)[O-])c1, the melting point was 192 to 194 °C.
With CCc1nccn1-c1nc(-c2ccc(Cl)cc2)c(CCCOc2ccccc2C)o1 the melting point was 91 to 92 °C.
For CC(=O)NC(COc1ccccc1)C(=O)O (stereo not given), the melting point was 90 to 92 °C.
Compound C#CCCCC(=O)c1nc(C(C)(C)C)c(O)c(C(C)(C)C)n1 has a melting point of 64 to 66 °C.
O=C(CCCCCc1cccc2cncn12)NO showed a melting point of 138 to 140 °C.
In the case of CC(=O)Nc1nc(Oc2ccccc2)nc2nc(-c3ccco3)nn12, the melting point is reported as 168 to 170 °C.
COc1ccc2c(c1)N(C1CN3CCC1CC3)c1ccccc1S2 (stereo not given) showed a melting point of 158 °C.
CC1=CSC(O)C(=O)N1 (stereo not given) gave a melting point of 166 to 168 °C.
For NC(=O)c1ccc2nc3c(c(=O)n2c1)CCC3=Cc1ccccc1, the melting point was 350 to 357 °C.
COc1cc(-c2cc3ccccc3[nH]2)cc(OC)c1O gave a melting point of 230 °C.
Cc1cn(C)c(C)c1-c1ccnc(Nc2ccc(F)cc2)n1 gave a melting point of 124 to 128 °C.
Compound CC1=C(C)C(=O)N(C2CCC(O)CC2)C1=O (stereo not given) has a melting point of 109 to 111 °C.
CCC(=O)c1cccc2nc3n(c12)CCCN3c1ccc(Cl)cc1Cl showed a melting point of 195 to 196 °C.
Compound Cc1sc2cc(C3=NCCS3)[nH]c2c1N(C)S(=O)(=O)c1cccs1 has a melting point of 140 °C.
CCOC(=O)N1CCN(c2nc(NC(C)=O)ccc2[N+](=O)[O-])CC1 gave a melting point of 168 to 169 °C.
Compound Nc1nc2c(c(Nc3ccc(F)c(Cl)c3)n1)-c1ccccc1C2 has a melting point of 232 to 233 °C.
Compound C=CCC1(CC=C)c2cccc(Cl)c2C(=O)c2c(OC)cccc21 has a melting point of 151 to 153 °C.
Work on CCOCc1nc2c(N)nc3cc(N4CCOC4=O)ccc3c2n1CC(C)(C)O yielded a melting point greater than 250 °C.
CCOC(=O)C(C(=O)c1ccc(OC)cc1)N(N)c1ccccn1 (stereo not given) showed a melting point of 130 to 131 °C.
In the case of CCN(C)c1ccc(Cn2nnc(-c3ccc(OC(=O)C(C)(C)C)cc3)n2)cc1, the melting point is reported as 122 to 125 °C.
With CC(=NN(C)c1ccc(C(F)(F)F)cc1)C(=O)NCc1ccc(Cl)nc1 the melting point was 141 to 142 °C.
Compound CC(C)n1cccc1C(N)=S has a melting point of 97.5 to 100 °C.
For CS(=O)(=O)c1cc(N)c([N+](=O)[O-])cc1N, the melting point was 221 °C.
